According to patent publication US12102063B2 (SYNEXIS LLC, priority 2017, dated 2024):
Where “and” joins values, the source holds several entries; their conditions need not be identical. Equal entries are not always repeated. Where two headings read alike, the source gives them in different places.

Tests used:
[1] = tested on: C. difficile (endospores) ATCC 43598
[2] = tested on: S. aureus ATCC 33592 (MRSA)
Protocol: (§2) 24 and 48 hour test cultures of S. aureus, as well as all A. brasiliensis and C. difficile are prepared with 0.1% Triton X-100. A 6 hour test culture of S. aureus is prepared with 5.0% Petal Bovine Serum and no Triton. Carriers (slides) are inoculated, in duplicate per test microorganism per condition, at a target concentration of 1×10^6 CPU/Carrier. Inoculated carriers are allowed to dry at ambient temperatures, and are then placed in respective conditions to endure contact times. Carriers for S. aureus endured contact times of 6, 24, and 48 hours. Carriers for A. brasiliensis endured contact times of 12, 24, and 48 hours. […] After respective contact times, carriers are harvested in 10.0 mL of D/E Broth, vortex mixed, diluted, and plated on the appropriate growth media for each microorganism. Environmental conditions are monitored using the Drager Rohrchen, and Drager Polytron methods described in Example 1. (Note: The limit of detection for this assay is 5.0 CPU. Samples with no detectable colonies are listed as <5.00E+OO in the table).

E. coli K12 = details: for Log10 reduction / Log10 reduction vs. Control: DHP (+)
[3] = tested on: MS2 Bacteriophage ATCC 15597-B1
broilers = tested on: broilers
Text: The chicks hatched according to the methods of Examples 2 and 3 are shipped to a broiler facility and raised to maturity. No additional changes to grow-out methods are made. A total of about 4 million eggs are set per month and the saleable chicks are sent to the grow-out facility. […] The wholesale price of a broiler is currently estimated at $0.85 per pound. […] See the nationalchickencouncil.org available on the web.

Aspergillus fumigatus = details: hatchery after DHP treatment
chicks = tested on: chicks
Protocol: Hatching eggs are obtained from a breeder farm and the eggs are subjected to standard egg cleaning and preparation procedures. Hatched chicks are collected and prepared according to standard procedures (separation of eggshells and unhatched eggs, counted, etc.). Chicks are graded according to established methods. See van de Ven et al., “Significance of chick quality score in broiler production,” Animal 6(10):1677-1683; Boerjan, “Programs for single stage incubation and chick quality,” Avian Poultry Biology Reviews 13:237-238 (2002); Tona et al, “Effects of egg storage time on spread of hatch, chick quality and chick juvenile growth,” Poultry Science 82:736-741 (2003).
As indicated, certain studies were performed at Western Hatchery in Abbotsford, British Columbia, Canada (“Western”), under the supervision of the inventors and assignee. Approximately 4 million eggs per month are processed through the hatchery.
The egg room is contiguous to the loading and receiving area of the facility and is exposed to the outside during deliveries for up to 2 to 3 hours daily. […] In addition to the incoming eggs, the egg room includes excess shipping boxes and pallets.
In June 2016, the egg room and facilities are modified to add a vestibule to the loading dock with plastic curtains and upgrading the HVAC system to provide a third supply duct. […] The use of the egg room is further modified to remove unnecessary equipment including, but not limited to, pallets, cardboard boxes, and crates.
Setter incubators are set to industry standard conditions: temperature between 37° C. and 38° C. and relative humidity between 40% and 70%.
FIG. 6 presents the percent hatching of first quality chicks.

bacteria = details: end of test period (30 days), three locations
Protocol: In addition, bacterial contamination in the egg room is assessed by placing blood agar plates at three locations in the room (East, North, and West) at 0, 7, and 30 days, and bacterial growth is assessed after 24 hours.

[4] = tested on: bacteria on commercial eggs
Protocol: (§3) For sampling, individual eggs are placed in Whirl-Pak bags containing 10 milliliters (ml) of tryptic soy broth and manually rubbed in bag for 1 minute each. The washed eggs are discarded. One (1) ml from each sample is transferred to a deep well plate in triplicate and 10 fold serial dilutions performed with tryptic soy broth to 10−^11 dilution. The deep well plates are incubated for 24 hours at 37° C. After incubation, 5 microliters (5 μl) of each well is stamped onto a 96-well plate containing either tryptic soy agar (TSA) or MacConkey (Macx) agar. TSA agar is a non-selective, general purpose media. Macx agar is a selective, differential culture media for Gram-negative enteric bacilli. The agar plates are incubated 24 hours at 37° C. and then scored for bacterial growth.
A similar experiment is performed under egg cooler conditions. […] In this experiment, 300 commercial eggs are placed in the cooler and twenty (20) eggs are sampled, four times over five (5) days at 0 hours, 24 hours, 72 hours, and 120 hours as described above.

Other blue green = details: hatchery after DHP treatment
Text: (§1) Hatcheries and chick production facilities are subject to heavy bacterial loads that are difficult to control. In addition to the animals themselves, there is a significant contamination of the facilities from the outside.

Total bacteria = details: hatchery after DHP treatment
Text: as §1

[5] = tested on: bacteria on commercial hatching eggs; details: DHP about 0.1 ppm, P=0.05
Protocol: As a control, sixty (60) commercial eggs are placed into a biosafety cabinet with the window closed. […] Sixty (60) commercial hatching eggs (test eggs) are placed in the room and both the control and test eggs are sampled, 10 eggs each, four times over the course of five (5) days at 0 hours, 24 hours, 72 hours, and 120 hours.
as §3
Bacterial growth is scored using a Most Probable Number (MPN) calculation.

[6] = tested on: A. brasiliensis ATCC 16404
Protocol: as §2

[7] = second contact time (48 hours), Hood (Treated)
[8] = second contact time (48 hours), Room (Treated)

OO [DHP, dry hydrogen peroxide]
Average CFU/Carrier ([1]; 24 Hours, Hood (Treated)): 2.75E+06 CFU/Carrier
Log Reduction compared to Control ([1]; 24 Hours, Hood (Treated)): None
Percent Reduction compared to Control ([1]; 24 Hours, Hood (Treated)): None
Average CFU/Carrier ([1]; 24 Hours, Room (Treated)): 1.53E+06 CFU/Carrier
Log Reduction compared to Control ([1]; 24 Hours, Room (Treated)): 0.07 Log
Percent Reduction compared to Control ([1]; 24 Hours, Room (Treated)): 13.96%
Average CFU/Carrier ([1]; 72 Hours, Hood (Treated)): 1.80E+06 CFU/Carrier
Log Reduction compared to Control ([1]; 72 Hours, Hood (Treated)): 0.31 Log
Percent Reduction compared to Control ([1]; 72 Hours, Hood (Treated)): 51.02%
Average CFU/Carrier ([1]; 72 Hours, Room (Treated)): 3.35E+06 CFU/Carrier
Log Reduction compared to Control ([1]; 72 Hours, Room (Treated)): 0.04 Log
Percent Reduction compared to Control ([1]; 72 Hours, Room (Treated)): 8.84%
Average CFU/Carrier [1, 7]: 3.10E+06 CFU/Carrier
Log Reduction compared to Control [1, 7]: 0.24 Log
Percent Reduction compared to Control [1, 7]: 42.06%
Average CFU/Carrier [1, 8]: 3.53E+06 CFU/Carrier
Log Reduction compared to Control [1, 8]: 0.18 Log
Percent Reduction compared to Control [1, 8]: 34.11%
% Reduction compared ([2]; 6 Hours, Hood (Treated)): 95.150%
Log Reduction compared to ([2]; 6 Hours, Hood (Treated)): 1.31 Log
% Reduction compared ([2]; 6 Hours, Room (Treated)): 83.053%
Log Reduction compared to ([2]; 6 Hours, Room (Treated)): 0.77 Log
% Reduction compared ([2]; 24 Hours, Hood (Treated)): >66.667%
Log Reduction compared to ([2]; 24 Hours, Hood (Treated)): >0.48 Log
Replicate CFU/Carrier ([2]; 24 Hours, Hood (Treated)): <5.00E+00 CFU/Carrier
% Reduction compared ([2]; 24 Hours, Room (Treated)): >88.889%
Average CFU/Carrier ([2]; 24 Hours, Room (Treated)): <5.00E+00 CFU/Carrier
Log Reduction compared to ([2]; 24 Hours, Room (Treated)): >0.95 Log
Replicate CFU/Carrier ([2]; 24 Hours, Room (Treated)): 5.00E+00 CFU/Carrier and <5.00E+00 CFU/Carrier
% Reduction compared ([2]; 48 Hours, Hood (Treated)): >78.947%
Log Reduction compared to ([2]; 48 Hours, Hood (Treated)): >0.68 Log
Replicate CFU/Carrier ([2]; 48 Hours, Hood (Treated)): <5.00E+00 CFU/Carrier
% Reduction compared ([2]; 48 Hours, Room (Treated)): >89.474%
Average CFU/Carrier ([2]; 48 Hours, Room (Treated)): <5.00E+00 CFU/Carrier
Log Reduction compared to ([2]; 48 Hours, Room (Treated)): >0.98 Log
Replicate CFU/Carrier ([2]; 48 Hours, Room (Treated)): <5.00E+00 CFU/Carrier
Log10 reduction (E. coli K12; 1 hour): >4.78 Log10
Log10 reduction vs. Control (E. coli K12; 1 hour): 2.82 Log10
Log10 reduction (E. coli K12; 2 hours): >4.79 Log10
Log10 reduction vs. Control (E. coli K12; 2 hours): 1.71 Log10
elimination of aerosolized bacteria from the DHP treated space (E. coli K12; within one hour): essentially eliminated
Log10 reduction ([3]; DHP (+), 1 hour): 3.54 Log10
Log10 reduction vs. Control ([3]; DHP (+), 1 hour): 2.70 Log10
elimination of airborne phage ([3]; within one hour): essentially eliminated
Mortality Rate (broilers; After DHP, grow-out facility): 2.2%
Net increase(# Chicks) (broilers; After DHP, per 4,000,000 eggs set): 62,000
Broilers raised (broilers; After DHP, per month): 3,161,678
reduction of mortality at the grow-out facility (broilers; chicks from DHP treated eggs): about 7.8%
Post (Aspergillus fumigatus): 1
percent hatching of first quality chicks (chicks; after installation of DHP to setter incubator environment, about 0.5 ppm in room): 83%
After Modification Cull Rate(%), Average (chicks; average of months): 1.65%
After Modification First Quality Chick (% Hatched), Average (chicks; average of months): 80.82%
additional birds available for shipping to the grow-out facility (chicks; egg room DHP): about 4,000 birds
cull rate lower than before DHP modification (chicks; egg room DHP): at least 1%
number of bacterial colonies on the blood agar plates, total (bacteria): about 30
growth on Mac, treated group ([4]; 72 hours compared to 0 hours, p=0.001): significantly less growth
growth on Mac, treated group ([4]; 120 hours compared to 0 hours, p=0.0001): significantly more growth
growth on Mac, treated group ([4]; 120 hours compared to 0 hours, p=0.05): significantly less growth
Mac growth with treatment ([4]; egg cooler, 0-120 hours): low throughout
TSA growth with treatment ([4]; egg cooler, 0-120 hours): static until 120 hours
Post (Other blue green): 56
Reduction (Total bacteria): over 90%
number of bacteria growing on TSA ([5]; after 72 hours): significantly reduced
number of bacteria growing on TSA ([5]; after 120 hours): significantly reduced
Average CFU/Carrier ([6]; 12 Hours, Hood (Treated)): 2.18E+06 CFU/Carrier
Log Reduction compared to Control ([6]; 12 Hours, Hood (Treated)): 0.02 Log
Percent Reduction compared to Control ([6]; 12 Hours, Hood (Treated)): 4.40%
Average CFU/Carrier ([6]; 12 Hours, Room (Treated)): 3.10E+06 CFU/Carrier
Log Reduction compared to Control ([6]; 12 Hours, Room (Treated)): None
Percent Reduction compared to Control ([6]; 12 Hours, Room (Treated)): None
Average CFU/Carrier ([6]; 24 Hours, Hood (Treated)): 9.75E+05 CFU/Carrier
Log Reduction compared to Control ([6]; 24 Hours, Hood (Treated)): 0.29 Log
Percent Reduction compared to Control ([6]; 24 Hours, Hood (Treated)): 48.68%
Average CFU/Carrier ([6]; 24 Hours, Room (Treated)): 1.43E+06 CFU/Carrier
Log Reduction compared to Control ([6]; 24 Hours, Room (Treated)): 0.12 Log
Percent Reduction compared to Control ([6]; 24 Hours, Room (Treated)): 25.00%
Replicate CFU/Carrier ([6]; 24 Hours, Room (Treated)): 1.75E+06 CFU/Carrier
Average CFU/Carrier ([6]; 48 Hours, Hood (Treated)): 6.75E+05 CFU/Carrier
Log Reduction compared to Control ([6]; 48 Hours, Hood (Treated)): 0.28 Log
Percent Reduction compared to Control ([6]; 48 Hours, Hood (Treated)): 47.06%
Average CFU/Carrier ([6]; 48 Hours, Room (Treated)): 1.70E+06 CFU/Carrier
Log Reduction compared to Control ([6]; 48 Hours, Room (Treated)): None
Percent Reduction compared to Control ([6]; 48 Hours, Room (Treated)): None
